Structures are written as SMILES. Where only a bound is given, the exact number is not on record here.

One experiment relates to HIF-2α transcriptional activity. In words: Hypoxia-responsive element-driven luciferase (HRE-Luc) screen. The experiment is classed as cell-based, human. As to conditions: 786-0 ccRCC cells stably expressing HRE-Luc; 24 h treatment; range of IC50 values. How it is done: Screens for inhibitory activity of compounds described herein were performed using 786-0 ccRCC cells that stably express HRE-Luc: 5 copies of the hypoxia-responsive element (HRE) fused to the pGL3 luciferase reporter (Promega Corp, Madison WI). 786-0 cells are pVHL deficient and thus constitutively express HIF-2α independently of cellular oxygen tension. Since 786-0 cells lack HIF-1α, HRE-driven luciferase activity is primarily HIF-2α driven, and has been previously validated. Cells were maintained at log phase growth in […] (DMEM) with 10% FBS in a humidified incubator at 37° C. with 5% CO2. For screening assays, cells were seeded at a density of 4,000 cells in 50 μl of complete media/well in quadruplicate wells/point in a 96-well plate. After 24 h, 50 μl of a 2× concentration of test compound was added to each well. Compounds were diluted from a 5-10 mM stock in DMSO and final concentrations of DMSO in each well in controls and treated wells were kept constant at ≤0.6% DMSO. After 24 h treatment, luciferase activity was measured using the Steady-Glo Luciferase assay system (Promega Corp) according to the manufacturer's protocol. Cell viability was measured in quadruplicate parallel wells using resazurin as recommended by the manufacturer (R&D systems, Minneapolis, MN). Data for luciferase and resazurin were normalized to DMSO treated controls (defining 100%) and wells containing assay reagent but no cells (defining 0%) and graphed using the log inhibitor versus normalized response option in Graphpad Prism 9.3.1 software. Representative data determined using Steady-Glo luciferase and resazurin are shown in FIGS. 1A and 1B respectively, with error bars showing SD. Filled diamonds, empty squares and empty triangles indicate treatment with 3, 8 and 22 respectively with results for HRE-Luc shown in FIG. 1A.
Usually IC50 stands for the concentration needed to halve the response being measured. A lower IC50 goes with inhibition by little substance. As for `COc1cccc2nc(Nc3nnc(C4CCC(OC)CC4)o3)[nH]c12` (single isomer, unassigned) [Compound 75-isomer-2, N-(7-methoxy-1H-benzo[d]imidazol-2-yl)-5-(4-methoxycyclohexyl)-1,3,4-oxadiazol-2-amine], the IC50 lay within 10 to 50 µM.

Staying with this experiment, now noted: Homo sapiens, 786-0, 24 h, 786-0 ccRCC cells stably expressing HRE-Luc; 24 h treatment; range of IC50 values.
With `COc1cccc2nc(Nc3nnc(C4CCC(OC)CC4)o3)[nH]c12` (single isomer, unassigned) [Compound 75-isomer-1, N-(7-methoxy-1H-benzo[d]imidazol-2-yl)-5-(4-methoxycyclohexyl)-1,3,4-oxadiazol-2-amine], the IC50 was less than 10 µM.
The same measure, in the same setting: to `COc1ccc2[nH]c(Nc3nnc(-c4ccc(F)cc4)o3)nc2n1` [Compound 4, 5-(4-Fluorophenyl)-N-(5-methoxy-1H-imidazo[4,5-b]pyridin-2-yl)-1,3,4-oxadiazol-2-amine] belongs less than 10 µM; to `Fc1ccc(-c2nnc(Nc3nc4cnc(Cl)cc4[nH]3)o2)cc1` [Compound 5, N-(6-Chloro-1H-imidazo[4,5-c]pyridin-2-yl)-5-(4-fluorophenyl)-1,3,4-oxadiazol-2-amine], 10 to 50 µM; to `Fc1ccc(-c2nnc(Nc3nc4cnc(C(F)(F)F)cc4[nH]3)o2)cc1` [Compound 6, 5-(4-Fluorophenyl)-N-(6-(trifluoromethyl)-1H-imidazo[4,5-c]pyridin-2-yl)-1,3,4-oxadiazol-2-amine], 10 to 50 µM.
Same read-out and setting: to `Cc1cncc2nc(Nc3nnc(-c4ccc(F)cc4)o3)[nH]c12` [Compound 7, 5-(4-Fluorophenyl)-N-(7-methyl-1H-imidazo[4,5-c]pyridin-2-yl)-1,3,4-oxadiazol-2-amine] belongs 10 to 50 µM; to `Fc1ccc(-c2nnc(Nc3nc4ncccc4o3)o2)cc1` [Compound 8, N-(5-(4-Fluorophenyl)-1,3,4-oxadiazol-2-yl)oxazolo[4,5-b]pyridin-2-amine], more than 10 µM.
For `COc1ccc2nc(Nc3nnc(-c4ccc(F)cc4)o3)sc2n1` [Compound 9, 5-(4-Fluorophenyl)-N-(5-methoxythiazolo[5,4-b]pyridin-2-yl)-1,3,4-oxadiazol-2-amine], the IC50 is 50 to 100 µM.
On the same count and under the same terms, with `Fc1ccc(-c2nnc(Nc3nc4cnc(N5CCOCC5)cc4[nH]3)o2)cc1` [Compound 10, 5-(4-Fluorophenyl)-N-(6-morpholino-1H-imidazo[4,5-c]pyridin-2-yl)-1,3,4-oxadiazol-2-amine] the figure was 10 to 50 µM; with `Fc1ccc(-c2nnc(Nc3nc4cnc(Cl)nc4[nH]3)o2)cc1` [Compound 14, N-(2-Chloro-9H-purin-8-yl)-5-(4-fluorophenyl)-1,3,4-oxadiazol-2-amine], 10 to 50 µM; with `Fc1ccc(-c2nnc(Nc3nc4ccnc(N5CCOCC5)c4[nH]3)o2)cc1` [Compound 17, 5-(4-Fluorophenyl)-N-(4-morpholino-3H-imidazo[4,5-c]pyridin-2-yl)-1,3,4-oxadiazol-2-amine], 10 to 50 µM.
Turning to `Fc1ccc(-c2nnc(Nc3nc4cncc(N5CCOCC5)c4[nH]3)o2)cc1` [Compound 18, 5-(4-Fluorophenyl)-N-(7-morpholino-1H-imidazo[4,5-c]pyridin-2-yl)-1,3,4-oxadiazol-2-amine], the IC50 is 10 to 50 µM.
`COc1cccc(-c2nccc3nc(Nc4nnc(-c5ccc(F)cc5)o4)[nH]c23)c1` [Compound 19, 5-(4-Fluorophenyl)-N-(4-(3-methoxyphenyl)-3H-imidazo[4,5-c]pyridin-2-yl)-1,3,4-oxadiazol-2-amine] displayed an IC50 of 50 to 100 µM.
Still for that read-out and setting: to `COc1nccc2[nH]c(Nc3nnc(-c4ccc(C(F)(F)F)cc4)o3)nc12` [Compound 20, N-(4-methoxy-1H-imidazo[4,5-c]pyridin-2-yl)-5-(4-(trifluoromethyl)phenyl)-1,3,4-oxadiazol-2-amine] belongs 10 to 50 µM; to `COc1nccc2[nH]c(Nc3nnc(-c4ccc(OC(F)(F)F)cc4)o3)nc12` [Compound 21, N-(4-methoxy-1H-imidazo[4,5-c]pyridin-2-yl)-5-(4-(trifluoromethoxy)phenyl)-1,3,4-oxadiazol-2-amine], 10 to 50 µM.

These data come from patent US20250346588A1, “IMIDAZOPYRIDINE AND OXAZOLOPYRIDINE DERIVATIVES AND ANALOGS THEREOF, METHODS OF PREPARATION THEREOF, METHODS OF HIF-1/2A PATHWAY INHIBITION, AND INDUCTION OF FERROPTOSIS” (KUDA THERAPEUTICS, INC., priority 2022, published 2025).
